{"source": "patent US6355799B1", "about": "“Substituted benzene compounds, process for their preparation, and herbicidal and defoliant compositions containing them” (ISK Americas Incorporated, priority 1997, dated 2002)", "assay_type_in_all_cases": "in vivo", "key": {"[1]": {"test_system": "redroot pigweed (Amaranthus retroflexus, AMARE)", "test": "Post-emerge test, greenhouse herbicide activity screening", "settings": "rating scale 0-100 (0 no damage, 100 complete death), 14 days after application", "how_it_was_run": "(§1)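 Compounds in acetone were track-sprayed at 187 l/ha, 15–1000 g ai/ha, onto sandy loam pots. Pre-emerge seeds were sown one day before spraying, with surface watering afterwards. Post-emerge plants were at the 2–3 leaf stage and sprayed with 0.25% v/v non-ionic surfactant. Injury was rated 0–100 at 14 days.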"}, "[2]": {"test_system": "green foxtail (Setaria viridis, SETVI)", "test": "Post-emerge test, greenhouse herbicide activity screening", "settings": "rating scale 0-100 (0 no damage, 100 complete death), 14 days after application", "how_it_was_run": "as §1"}, "[3]": {"test_system": "lambsquarters (Chenopodium album, CHEAL)", "test": "Post-emerge test, greenhouse herbicide activity screening", "settings": "rating scale 0-100 (0 no damage, 100 complete death), 14 days after application", "how_it_was_run": "as §1"}, "[4]": {"test_system": "barnyardgrass (Echinochloa crus-galli, ECHCG)", "test": "Post-emerge test, greenhouse herbicide activity screening", "settings": "rating scale 0-100 (0 no damage, 100 complete death), 14 days after application", "how_it_was_run": "as §1"}, "[5]": {"test_system": "velvetleaf (Abutilon theophrasti, ABUTH)", "test": "Post-emerge test, greenhouse herbicide activity screening", "settings": "rating scale 0-100 (0 no damage, 100 complete death), 14 days after application", "how_it_was_run": "as §1"}, "[6]": {"test_system": "johnsongrass (Sorghum halepense, SORHA)", "test": "Post-emerge test, greenhouse herbicide activity screening", "settings": "rating scale 0-100 (0 no damage, 100 complete death), 14 days after application", "how_it_was_run": "as §1"}, "[7]": {"test_system": "common ragweed (Ambrosia artemisizfolia L., AMBEL)", "test": "Post-emerge test, greenhouse herbicide activity screening", "settings": "rating scale 0-100 (0 no damage, 100 complete death), 14 days after application", "how_it_was_run": "as §1"}, "[8]": {"test_system": "large crabgrass (Digitaria sanguinalis, DIGSA)", "test": "Post-emerge test, greenhouse herbicide activity screening", "settings": "rating scale 0-100 (0 no damage, 100 complete death), 14 days after application", "how_it_was_run": "as §1"}, "[9]": {"test_system": "ivyleaf morningglory (Ipomoea hederacea, IPOHE)", "test": "Post-emerge test, greenhouse herbicide activity screening", "settings": "rating scale 0-100 (0 no damage, 100 complete death), 14 days after application", "how_it_was_run": "as §1"}, "[10]": {"test_system": "sicklepod (Cassia obtusifolia, CASOB)", "test": "Post-emerge test, greenhouse herbicide activity screening", "settings": "rating scale 0-100 (0 no damage, 100 complete death), 14 days after application", "how_it_was_run": "as §1"}, "[11]": {"test_system": "field corn (Zea mays L., var. Dekalb 535, CORN)", "test": "Post-emerge test, crop safety", "settings": "rating scale 0-100 (0 no damage, 100 complete death), 14 days after application", "how_it_was_run": "(§2)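 Sandy loam pots; pre-emerge: sown 1 d pre-spray, surface-watered after, then bottom-watered. Post-emerge: sown 8–21 d before, 2–3 leaf stage, + 0.25% v/v NIS, bottom-watered. Acetone, 187 l/ha track spray, 15–1000 g ai/ha. 0–100 injury score, day 14.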"}, "[12]": {"test_system": "upland rice (Oryza sp., var. Tebonnet, RICE)", "test": "Post-emerge test, crop safety", "settings": "rating scale 0-100 (0 no damage, 100 complete death), 14 days after application", "how_it_was_run": "as §2"}, "[13]": {"test_system": "green foxtail (Setaria viridis, SETVI)", "test": "Pre-emerge test, greenhouse herbicide activity screening", "settings": "rating scale 0-100, 14 days after application", "how_it_was_run": "as §2"}, "[14]": {"test_system": "lambsquarters (Chenopodium album, CHEAL)", "test": "Pre-emerge test, greenhouse herbicide activity screening", "settings": "rating scale 0-100, 14 days after application", "how_it_was_run": "as §2"}, "[15]": {"test_system": "barnyardgrass (Echinochloa crus-galli, ECHCG)", "test": "Pre-emerge test, greenhouse herbicide activity screening", "settings": "rating scale 0-100, 14 days after application", "how_it_was_run": "as §2"}, "[16]": {"test_system": "velvetleaf (Abutilon theophrasti, ABUTH)", "test": "Pre-emerge test, greenhouse herbicide activity screening", "settings": "rating scale 0-100, 14 days after application", "how_it_was_run": "as §2"}, "[17]": {"test_system": "johnsongrass (Sorghum halepense, SORHA)", "test": "Pre-emerge test, greenhouse herbicide activity screening", "settings": "rating scale 0-100, 14 days after application", "how_it_was_run": "as §2"}, "[18]": {"test_system": "common ragweed (Ambrosia artemisizfolia L., AMBEL)", "test": "Pre-emerge test, greenhouse herbicide activity screening", "settings": "rating scale 0-100, 14 days after application", "how_it_was_run": "as §2"}, "[19]": {"test_system": "large crabgrass (Digitaria sanguinalis, DIGSA)", "test": "Pre-emerge test, greenhouse herbicide activity screening", "settings": "rating scale 0-100, 14 days after application", "how_it_was_run": "as §2"}, "[20]": {"test_system": "ivyleaf morningglory (Ipomoea hederacea, IPOHE)", "test": "Pre-emerge test, greenhouse herbicide activity screening", "settings": "rating scale 0-100, 14 days after application", "how_it_was_run": "as §2"}, "[21]": {"test_system": "sicklepod (Cassia obtusifolia, CASOB)", "test": "Pre-emerge test, greenhouse herbicide activity screening", "settings": "rating scale 0-100, 14 days after application", "how_it_was_run": "as §2"}, "[22]": {"test_system": "field corn (Zea mays L., var. Dekalb 535, CORN)", "test": "Pre-emerge test, crop safety", "settings": "rating scale 0-100, 14 days after application", "how_it_was_run": "as §1"}, "[23]": {"test_system": "upland rice (Oryza sp., var. Tebonnet, RICE)", "test": "Pre-emerge test, crop safety", "settings": "rating scale 0-100, 14 days after application", "how_it_was_run": "as §1"}, "[24]": {"test_system": "redroot pigweed (Amaranthus retroflexus, AMARE)", "test": "Pre-emerge test, greenhouse herbicide activity screening", "settings": "rating scale 0-100, 14 days after application", "how_it_was_run": "as §2"}}}
{"smiles": "CCCOC(=O)C(Cl)Cc1c(OC)c(Cl)cc(F)c1-n1c(=O)cc(C(F)(F)F)n(C)c1=O", "note": "(single isomer, unassigned) [14-7]", "values": [{"measurement": "Post-emerge Herbicidal Activity, phytotoxicity rating AMARE", "setting": "[1]; Rate 63 g ai/ha", "result": 95}, {"measurement": "Post-emerge Herbicidal Activity, phytotoxicity rating AMARE", "setting": "[1]; Rate 250 g ai/ha", "result": 100}, {"measurement": "Post-emerge Herbicidal Activity, phytotoxicity rating SETVI", "setting": "[2]; Rate 63 g ai/ha", "result": 60}, {"measurement": "Post-emerge Herbicidal Activity, phytotoxicity rating SETVI", "setting": "[2]; Rate 250 g ai/ha", "result": 85}, {"measurement": "Post-emerge Herbicidal Activity, phytotoxicity rating CHEAL", "setting": "[3]; Rate 63 g ai/ha", "result": 90}, {"measurement": "Post-emerge Herbicidal Activity, phytotoxicity rating CHEAL", "setting": "[3]; Rate 250 g ai/ha", "result": 99}, {"measurement": "Post-emerge Herbicidal Activity, phytotoxicity rating ECHCG", "setting": "[4]; Rate 63 g ai/ha", "result": 100}, {"measurement": "Post-emerge Herbicidal Activity, phytotoxicity rating ECHCG", "setting": "[4]; Rate 250 g ai/ha", "result": 100}, {"measurement": "Post-emerge Herbicidal Activity, phytotoxicity rating ABUTH", "setting": "[5]; Rate 63 g ai/ha", "result": 50}, {"measurement": "Post-emerge Herbicidal Activity, phytotoxicity rating ABUTH", "setting": "[5]; Rate 250 g ai/ha", "result": 100}, {"measurement": "Post-emerge Herbicidal Activity, phytotoxicity rating SORHA", "setting": "[6]; Rate 63 g ai/ha", "result": 70}, {"measurement": "Post-emerge Herbicidal Activity, phytotoxicity rating SORHA", "setting": "[6]; Rate 250 g ai/ha", "result": 90}, {"measurement": "Post-emerge Herbicidal Activity, phytotoxicity rating AMBEL", "setting": "[7]; Rate 63 g ai/ha", "result": 50}, {"measurement": "Post-emerge Herbicidal Activity, phytotoxicity rating AMBEL", "setting": "[7]; Rate 250 g ai/ha", "result": 90}, {"measurement": "Post-emerge Herbicidal Activity, phytotoxicity rating DIGSA", "setting": "[8]; Rate 63 g ai/ha", "result": 80}, {"measurement": "Post-emerge Herbicidal Activity, phytotoxicity rating DIGSA", "setting": "[8]; Rate 250 g ai/ha", "result": 100}, {"measurement": "Post-emerge Herbicidal Activity, phytotoxicity rating IPOHE", "setting": "[9]; Rate 63 g ai/ha", "result": 20}, {"measurement": "Post-emerge Herbicidal Activity, phytotoxicity rating IPOHE", "setting": "[9]; Rate 250 g ai/ha", "result": 60}, {"measurement": "Post-emerge Herbicidal Activity, phytotoxicity rating CASOB", "setting": "[10]; Rate 63 g ai/ha", "result": 0}, {"measurement": "Post-emerge Herbicidal Activity, phytotoxicity rating CASOB", "setting": "[10]; Rate 250 g ai/ha", "result": 20}, {"measurement": "Post-emerge phytotoxicity rating CORN (crop damage)", "setting": "[11]; Rate 63 g ai/ha", "result": 95}, {"measurement": "Post-emerge phytotoxicity rating CORN (crop damage)", "setting": "[11]; Rate 250 g ai/ha", "result": 100}, {"measurement": "Post-emerge phytotoxicity rating RICE (crop damage)", "setting": "[12]; Rate 63 g ai/ha", "result": 10}, {"measurement": "Post-emerge phytotoxicity rating RICE (crop damage)", "setting": "[12]; Rate 250 g ai/ha", "result": 25}, {"measurement": "Pre-emerge herbicidal activity, phytotoxicity rating SETVI", "setting": "[13]; 63 g ai/ha", "result": 10}, {"measurement": "Pre-emerge herbicidal activity, phytotoxicity rating SETVI", "setting": "[13]; 250 g ai/ha", "result": 90}, {"measurement": "Pre-emerge herbicidal activity, phytotoxicity rating CHEAL", "setting": "[14]; 63 g ai/ha", "result": 40}, {"measurement": "Pre-emerge herbicidal activity, phytotoxicity rating CHEAL", "setting": "[14]; 250 g ai/ha", "result": 85}, {"measurement": "Pre-emerge herbicidal activity, phytotoxicity rating ECHCG", "setting": "[15]; 63 g ai/ha", "result": 0}, {"measurement": "Pre-emerge herbicidal activity, phytotoxicity rating ECHCG", "setting": "[15]; 250 g ai/ha", "result": 75}, {"measurement": "Pre-emerge herbicidal activity, phytotoxicity rating ABUTH", "setting": "[16]; 63 g ai/ha", "result": 100}, {"measurement": "Pre-emerge herbicidal activity, phytotoxicity rating ABUTH", "setting": "[16]; 250 g ai/ha", "result": 100}, {"measurement": "Pre-emerge herbicidal activity, phytotoxicity rating SORHA", "setting": "[17]; 63 g ai/ha", "result": 0}, {"measurement": "Pre-emerge herbicidal activity, phytotoxicity rating SORHA", "setting": "[17]; 250 g ai/ha", "result": 70}, {"measurement": "Pre-emerge herbicidal activity, phytotoxicity rating AMBEL", "setting": "[18]; 63 g ai/ha", "result": 0}, {"measurement": "Pre-emerge herbicidal activity, phytotoxicity rating AMBEL", "setting": "[18]; 250 g ai/ha", "result": 50}, {"measurement": "Pre-emerge herbicidal activity, phytotoxicity rating DIGSA", "setting": "[19]; 63 g ai/ha", "result": 90}, {"measurement": "Pre-emerge herbicidal activity, phytotoxicity rating DIGSA", "setting": "[19]; 250 g ai/ha", "result": 100}, {"measurement": "Pre-emerge herbicidal activity, phytotoxicity rating IPOHE", "setting": "[20]; 63 g ai/ha", "result": 0}, {"measurement": "Pre-emerge herbicidal activity, phytotoxicity rating IPOHE", "setting": "[20]; 250 g ai/ha", "result": 0}, {"measurement": "Pre-emerge herbicidal activity, phytotoxicity rating CASOB", "setting": "[21]; 63 g ai/ha", "result": 20}, {"measurement": "Pre-emerge herbicidal activity, phytotoxicity rating CASOB", "setting": "[21]; 250 g ai/ha", "result": 0}, {"measurement": "Pre-emerge phytotoxicity rating, crop damage CORN", "setting": "[22]; 63 g ai/ha", "result": 10}, {"measurement": "Pre-emerge phytotoxicity rating, crop damage CORN", "setting": "[22]; 250 g ai/ha", "result": 90}, {"measurement": "Pre-emerge phytotoxicity rating, crop damage RICE", "setting": "[23]; 63 g ai/ha", "result": 0}, {"measurement": "Pre-emerge phytotoxicity rating, crop damage RICE", "setting": "[23]; 250 g ai/ha", "result": 40}, {"measurement": "Pre-emerge herbicidal activity, phytotoxicity rating AMARE", "setting": "[24]; 63 g ai/ha", "result": 90}, {"measurement": "Pre-emerge herbicidal activity, phytotoxicity rating AMARE", "setting": "[24]; 250 g ai/ha", "result": 100}]}
